Test results taken from patent US8143293B2, “Kinase inhibitors useful for the treatment of myleoprolific diseases and other proliferative diseases” (Deciphera Pharmaceuticals, LLC, priority 2007, dated 2012).

Tests used:
[1] = target: T1, c-Kit kinase (SEQ ID NO:9) (Homo sapiens, UniProt P10721); assay: C-Kit kinase (SEQ ID NO:9) assay, pyruvate kinase/lactate dehydrogenase coupled; conditions: <2 min preincubation, ATP 200 μM; read-out: Biochemical IC50, c-Kit Enzyme Assay
T1 construct: contained c-Kit (cKIT residues T544-V976, from ProQinase, 5.4 nM); purchased ProQinase
T1 sequence (P10721 with tags, fused parts or gaps): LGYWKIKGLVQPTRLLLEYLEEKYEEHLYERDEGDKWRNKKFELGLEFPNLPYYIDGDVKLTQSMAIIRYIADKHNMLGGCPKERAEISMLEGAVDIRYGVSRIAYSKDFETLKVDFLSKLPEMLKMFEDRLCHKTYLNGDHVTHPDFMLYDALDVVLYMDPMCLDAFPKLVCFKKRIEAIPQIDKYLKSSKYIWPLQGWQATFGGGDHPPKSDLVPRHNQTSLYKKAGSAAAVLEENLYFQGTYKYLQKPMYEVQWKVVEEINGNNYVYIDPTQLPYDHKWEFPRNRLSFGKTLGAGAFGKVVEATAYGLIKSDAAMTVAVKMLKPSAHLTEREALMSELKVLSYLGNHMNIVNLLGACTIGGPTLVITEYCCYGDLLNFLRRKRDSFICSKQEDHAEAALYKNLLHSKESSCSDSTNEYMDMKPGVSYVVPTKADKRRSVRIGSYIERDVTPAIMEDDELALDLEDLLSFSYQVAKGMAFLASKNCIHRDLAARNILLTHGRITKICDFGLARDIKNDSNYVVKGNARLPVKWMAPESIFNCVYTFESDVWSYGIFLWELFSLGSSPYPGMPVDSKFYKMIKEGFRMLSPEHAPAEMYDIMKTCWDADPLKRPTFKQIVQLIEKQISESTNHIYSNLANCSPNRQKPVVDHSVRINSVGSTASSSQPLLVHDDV
Procedure: C-Kit Kinase (SEQ ID NO:9) Assay
Activity of c-Kit kinase (SEQ ID NO:9) was determined by following the production of ADP from the kinase reaction through coupling with the pyruvate kinase/lactate dehydrogenase system (e.g., Schindler, et al. Science (2000) 289, 1938-1942). In this assay, the oxidation of NADH (thus the decrease at A340 nm) was continuously monitored spectrophometrically. The reaction mixture (100 μl) contained c-Kit (cKIT residues T544-V976, from ProQinase, 5.4 nM), polyE4Y (1 mg/ml), MgCl2 (10 mM), pyruvate kinase (4 units), lactate dehydrogenase (0.7 units), phosphoenol pyruvate (1 mM), and NADH (0.28 mM) in 90 mM Tris buffer containing 0.2% octyl-glucoside and 1% DMSO, pH 7.5. Test compounds were incubated with […] (SEQ ID NO:9) and other reaction reagents at 22° C. for <2 min before ATP (200 μM) was added to start the reaction. The absorption at 340 nm was monitored continuously for 0.5 hours at 30° C. on Polarstar Optima plate reader (BMG). The reaction rate was calculated using the 0 to 0.5 h time frame. Percent inhibition was obtained by comparison of reaction rate with that of a control (i.e. with no test compound). IC50 values were calculated from a series of percent inhibition values determined at a range of inhibitor concentrations using software routines as implemented in the GraphPad Prism software package.

[2] = target: T2, T315I Abl kinase (SEQ ID NO:2) (Homo sapiens, UniProt P00519, T315I); assay: T315I Abl kinase (SEQ ID NO:2) assay, pyruvate kinase/lactate dehydrogenase coupled; conditions: 1 h preincubation, ATP 500 μM; read-out: Biochemical IC50, Abl T315I Enzyme Assay
T2 construct: purchased deCode Genetics
T2 sequence (P00519 with tags, fused parts or gaps T315I): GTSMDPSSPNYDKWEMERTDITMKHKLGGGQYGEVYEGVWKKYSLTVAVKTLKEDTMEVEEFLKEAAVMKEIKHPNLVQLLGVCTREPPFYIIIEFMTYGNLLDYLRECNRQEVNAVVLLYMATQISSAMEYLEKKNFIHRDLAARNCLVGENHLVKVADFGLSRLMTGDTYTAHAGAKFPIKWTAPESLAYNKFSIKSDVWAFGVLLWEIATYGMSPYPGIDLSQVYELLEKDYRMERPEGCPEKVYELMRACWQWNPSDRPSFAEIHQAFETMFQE
Procedure: Abl Kinase (SEQ ID NO:2) Assay
Activity of T315I Abl kinase (SEQ ID NO:2) was determined by following the production of ADP from the kinase reaction through coupling with the pyruvate kinase/lactate dehydrogenase system (e.g., Schindler, et al. Science (2000) 289, 1938-1942). In this assay, the oxidation of NADH (thus the decrease at A340 nm) was continuously monitored spectrophometrically. The reaction mixture (100 μl) contained Abl kinase (4.4 nM, […] Abl from deCode Genetics), peptide substrate (EAIYAAPFAKKK, 0.2 mM), MgCl2 (10 mM), pyruvate kinase (4 units), lactate dehydrogenase (0.7 units), phosphoenol pyruvate (1 mM), and NADH (0.28 mM) in 90 mM Tris buffer containing 0.2% octyl-glucoside and 1% DMSO, pH 7.5. Test compounds were incubated with T315I Abl (SEQ ID NO:2) and other reaction reagents at 30° C. for 1 h before ATP (500 μM) was added to start the reaction. The absorption at 340 nm was monitored continuously for 2 hours at 30° C. on Polarstar Optima plate reader (BMG). The reaction rate was calculated using the 1.0 to 2.0 h time frame. Percent inhibition was obtained by comparison of reaction rate with that of a control (i.e. with no test compound). IC50 values were calculated from a series of percent inhibition values determined at a range of inhibitor concentrations using software routines as implemented in the GraphPad Prism software package.

[3] = target: T3, BaF3 cells transfected with T315I p210 BCR-Abl (Homo sapiens, UniProt P00519, T315I, cells depend on it); assay: Ba/F3 p210 T315I whole cell proliferation assay; assay type: cell-based; conditions: 72 hours, Cell Titer Blue; read-out: Whole Cell Antiproliferation IC50, Ba/F3 p210 T315I whole cell proliferation assay
T3 construct: fused on or other part: P11274 (Breakpoint cluster region protein)

[4] = target: T4, BaF3 cells transfected with wild type p210 BCR-Abl (Homo sapiens, UniProt P00519); assay: Ba/F3 p210 whole cell proliferation assay; assay type: cell-based; conditions: 72 hours, Cell Titer Blue; read-out: Whole Cell Antiproliferation IC50, Ba/F3 p210 whole cell proliferation assay
T4 construct: fused on or other part: P11274 (Breakpoint cluster region protein)

| IC50 [1] [nM] | IC50 [2] [nM] | GI50 [3] [nM] | GI50 [4] [nM] | Compound |
| --- | --- | --- | --- | --- |
| < 100 | < 100 | < 100 | < 100 | Cn1cc(-c2cc(Oc3ccc(NC(=O)Nc4cncc(C(F)(F)F)c4)c(F)c3)ccn2)cn1 [Example 21, 1-(2-fluoro-4-(2-(1-methyl-1H-pyrazol-4-yl)pyridin-4-yloxy)phenyl)-3-(5-(trifluoromethyl)pyridin-3-yl)urea] |
| < 100 | < 100 | < 1000 | < 100 | Cc1oc(C(C)(C)C)cc1NC(=O)Nc1ccc(Oc2ccnc(-c3cnn(C)c3)c2)cc1F [Example 28, 1-(5-tert-butyl-2-methylfuran-3-yl)-3-(2-fluoro-4-(2-(1-methyl-1H-pyrazol-4-yl)pyridin-4-yloxy)phenyl)urea] |
| < 100 | < 100 | < 100 | < 100 | CN(C)CCn1nc(C(C)(C)C)cc1NC(=O)Nc1ccc(Oc2ccnc(-c3cnn(C)c3)c2)cc1F [Example 12, 1-(3-tert-butyl-1-(2-(dimethylamino)ethyl)-11H-pyrazol-5-yl)-3-(2-fluoro-4-(2-(1-methyl-1H-pyrazol-4-yl)pyridin-4-yloxy)phenyl)urea] |
| < 100 | < 100 | < 100 | < 100 | 1-(2-fluoro-4-(2-(1-methyl-1H-pyrazol-4-yl)pyridin-4-yloxy)phenyl)-3-(3-(1-methylcyclopentyl)isoxazol-5-yl)urea [Example 14] |
| < 100 | < 100 | < 100 | < 100 | Cn1cc(-c2cc(Oc3ccc(NC(=O)Nc4cnn(C(C)(C)C)c4)c(F)c3)ccn2)cn1 [Example 5, 1-(1-t-butyl-1H-pyrazol-4-yl)-3-(2-fluoro-4-(2-(1-methyl-1H-pyrazol-4-yl)pyridin-4-yloxy)phenyl)urea] |
| < 100 | < 100 | < 100 | < 100 | Cn1cc(-c2cc(Oc3ccc(NC(=O)Nc4cccc(C(F)(F)F)c4)c(F)c3)ccn2)cn1 [Example 3, 1-(2-fluoro-4-(2-(1-methyl-1H-pyrazol-4-yl)pyridin-4-yloxy)phenyl)-3-(3-(trifluoromethyl)phenyl)urea] |
| < 100 | < 100000 | < 1000 | < 100 | Cn1cc(-c2cc(Oc3ccc(NC(=O)Nc4cnn(C(C)(C)C)c4C(F)(F)F)c(F)c3)ccn2)cn1 [Example 9, 1-(1-tert-butyl-5-(trifluoromethyl)-1H-pyrazol-4-yl)-3-(2-fluoro-4-(2-(1-methyl-1H-pyrazol-4-yl)pyridin-4-yloxy)phenyl)urea] |
| < 100 | < 100 | < 100 | < 100 | Cn1cc(-c2cc(Oc3ccc(NC(=O)Nc4cc(C(F)(F)F)cnc4-c4cnn(C)c4)c(F)c3)ccn2)cn1 [Example 42, 1-(2-fluoro-4-(2-(1-methyl-1H-pyrazol-4-yl)pyridin-4-yloxy)phenyl)-3-(2-(1-methyl-1H-pyrazol-4-yl)-5-(trifluoromethyl)pyridin-3-yl)urea] |
| < 100 | < 100 | < 100 | < 100 | Cn1cc(-c2cc(Oc3ccc(NC(=O)Nc4cnn(C5CCCC5)c4)c(F)c3)ccn2)cn1 [Example 15, 1-(1-cyclopentyl-1H-pyrazol-4-yl)-3-(2-fluoro-4-(2-(1-methyl-1H-pyrazol-4-yl)pyridin-4-yloxy)phenyl)urea] |
| < 100 | < 100 | < 100 | < 100 | Cn1cc(-c2cc(Oc3ccc(NC(=O)Nc4cc(C(C)(C)C)no4)c(F)c3)ccn2)cn1 [Example 1, 1-(3-t-butylisoxazol-5-yl)-3-(2-fluoro-4-(2-(1-methyl-1H-pyrazol-4-yl)pyridin-4-yloxy)phenyl)urea] |
| < 100 | < 100 | < 100 | < 100 | Cn1cc(-c2cc(Oc3ccc(NC(=O)Nc4cc(C(C)(C)C)nn4C)c(F)c3)ccn2)cn1 [Example 2, 1-(3-t-butyl-1-methyl-1H-pyrazol-5-yl)-3-(2-fluoro-4-(2-(1-methyl-1H-pyrazol-4-yl)pyridin-4-yloxy)phenyl)urea] |
| < 100 | < 100 | < 100 | < 100 | Cn1cc(-c2cc(Oc3ccc(NC(=O)Nc4nnc(C(C)(C)C)s4)c(F)c3)ccn2)cn1 [Example 11, 1-(5-tert-butyl-1,3,4-thiadiazol-2-yl)-3-(2-fluoro-4-(2-(1-methyl-1H-pyrazol-4-yl)pyridin-4-yloxy)phenyl)urea] |
| < 100 | < 100 | < 100 | < 100 | Cn1cc(-c2cc(Oc3ccc(NC(=O)Nc4cncc(C(F)(F)F)c4)cc3)ccn2)cn1 [Example 6, 1-(4-(2-(1-methyl-1H-pyrazol-4-yl)pyridin-4-yloxy)phenyl)-3-(5-(trifluoromethyl)pyridin-3-yl)urea] |
| < 100 | < 100 | < 100 | < 100 | CC(C)c1cncc(NC(=O)Nc2ccc(Oc3ccnc(-c4cnn(C)c4)c3)cc2F)c1 [Example 22, 1-(2-fluoro-4-(2-(1-methyl-1H-pyrazol-4-yl)pyridin-4-yloxy)phenyl)-3-(5-isopropylpyridin-3-yl)urea] |
| < 100000 | < 100000 | < 1000 | < 1000 | Cn1cc(-c2cc(Oc3ccc(NC(=O)Nc4cnc(C(C)(C)C)nc4N4CCOCC4)c(F)c3)ccn2)cn1 [Example 41, 1-(2-tert-butyl-4-morpholinopyrimidin-5-yl)-3-(2-fluoro-4-(2-(1-methyl-1H-pyrazol-4-yl)pyridin-4-yloxy)phenyl)urea] |
| < 100 | < 100 | < 100 | < 100 | Cn1cc(-c2cc(Oc3ccc(NC(=O)Nc4cnn(C(C)(C)C)c4)c(F)c3F)ccn2)cn1 [Example 8, 1-(1-tert-butyl-1H-pyrazol-4-yl)-3-(2,3-difluoro-4-(2-(1-methyl-1H-pyrazol-4-yl)pyridin-4-yloxy)phenyl)urea] |
| < 100 | < 100 | < 100 | < 100 | Cn1cc(-c2cc(Oc3ccc(NC(=O)Nc4cc(C(F)(F)F)c[nH]c4=O)c(F)c3)ccn2)cn1 [Example 27, 1-(2-fluoro-4-(2-(1-methyl-1H-pyrazol-4-yl)pyridin-4-yloxy)phenyl)-3-(2-oxo-5-(trifluoromethyl)-1,2-dihydropyridin-3-yl)urea] |
| < 100 | < 100 | < 100 | < 100 | Cn1cc(-c2cc(Oc3ccc(NC(=O)Nc4cc(C(C)(C)C)no4)c(F)c3F)ccn2)cn1 [Example 25, 1-(3-tert-butylisoxazol-5-yl)-3-(2,3-difluoro-4-(2-(1-methyl-1H-pyrazol-4-yl)pyridin-4-yloxy)phenyl)urea] |
